Patent publication US11958865B1, “Leucine-rich repeat kinase 2 (LRRK2) inhibitors” (H. Lundbeck A/S, priority 2022, dated 2024)
Read-outs that look alike come from different tables or passages of the source.

Key:
[1] = biological target: LRRK2 G2019S (Homo sapiens (Human), UniProt Q5S007, G2019S); test: LRRK2 G2019S LanthaScreen TR-FRET kinase activity assay; assay type: biochemical; settings: 250 pM kinase, 1.3 mM ATP, n≥2 tests
Protocol: (§1) LRRK2 kinase activity was measured using a LanthaScreen kinase activity assay available from Invitrogen (Life Technologies Corporation). […] The phosphorylated peptide is recognized by a terbium-labelled phospho-specific anti-LRRKtide antibody (pLRRKtide antibody), obtainable from Life Technologies Corporation) and, subsequently, the phosphorylated LRRKtide can be quantified by the extent of TR-FRET between the terbium donor and fluorescein acceptor.
(§2) As discussed above, this mutation increases the kinase activity relative to the wild type. The kinase reactions were performed in a 20 μL volume in 384-well plates. The kinase reaction buffer consisted of 50 mM Tris pH 8.5, 0.01% BRIJ-35, 10 mM MgCl2, 1 mM EGTA, and 2 mM DTT.
(§3) The mixture was further incubated for 30 minutes at RT. TR-FRET was measured by excitation of the terbium-donor with 340 nm light and subsequent (delay time […]) measurement of terbium and fluorescein emission at 495 nm and 520 nm, respectively, over a time window of […]. The measurement was repeated 30 times for fluorescein and 30 times for terbium emission with a […] between repeats. TR-FRET measurements were performed on a Biotek Synergy plate. The TR-FRET signal was calculated as the emission-ratio at 520 nm over 495 nm.
(§4) Test compound potency (IC50) was estimated by nonlinear regression using the sigmoidal dose-response (variable slope) using Xlfit 4 (IDBS, Guildford, Surrey, UK, model 205). Were the IC50 could not be determined the % inhibition at the highest tested concentration is given by equation 1. Equation (1): y=(A+((B−A)/(1+((C/x)^D)))) (1)
(§5) where y is the normalized TR-TRET ratio measurement for a given concentration of test compound, x is the concentration of test compound, A is the estimated efficacy (% inhibition) at infinite compound dilution, and B is the maximal efficacy (% inhibition). C is the IC50 value and D is the Hill slope coefficient. IC50 estimates were obtained from independent experiment and the logarithmic average was calculated.

[2] = biological target: T1, LRRK2 WT (Homo sapiens (Human), UniProt Q5S007); test: LRRK2 wild-type LanthaScreen TR-FRET kinase activity assay; assay type: biochemical; settings: 1 nM kinase, 1.3 mM ATP, n≥2 tests
T1 sequence (Q5S007 970-2527): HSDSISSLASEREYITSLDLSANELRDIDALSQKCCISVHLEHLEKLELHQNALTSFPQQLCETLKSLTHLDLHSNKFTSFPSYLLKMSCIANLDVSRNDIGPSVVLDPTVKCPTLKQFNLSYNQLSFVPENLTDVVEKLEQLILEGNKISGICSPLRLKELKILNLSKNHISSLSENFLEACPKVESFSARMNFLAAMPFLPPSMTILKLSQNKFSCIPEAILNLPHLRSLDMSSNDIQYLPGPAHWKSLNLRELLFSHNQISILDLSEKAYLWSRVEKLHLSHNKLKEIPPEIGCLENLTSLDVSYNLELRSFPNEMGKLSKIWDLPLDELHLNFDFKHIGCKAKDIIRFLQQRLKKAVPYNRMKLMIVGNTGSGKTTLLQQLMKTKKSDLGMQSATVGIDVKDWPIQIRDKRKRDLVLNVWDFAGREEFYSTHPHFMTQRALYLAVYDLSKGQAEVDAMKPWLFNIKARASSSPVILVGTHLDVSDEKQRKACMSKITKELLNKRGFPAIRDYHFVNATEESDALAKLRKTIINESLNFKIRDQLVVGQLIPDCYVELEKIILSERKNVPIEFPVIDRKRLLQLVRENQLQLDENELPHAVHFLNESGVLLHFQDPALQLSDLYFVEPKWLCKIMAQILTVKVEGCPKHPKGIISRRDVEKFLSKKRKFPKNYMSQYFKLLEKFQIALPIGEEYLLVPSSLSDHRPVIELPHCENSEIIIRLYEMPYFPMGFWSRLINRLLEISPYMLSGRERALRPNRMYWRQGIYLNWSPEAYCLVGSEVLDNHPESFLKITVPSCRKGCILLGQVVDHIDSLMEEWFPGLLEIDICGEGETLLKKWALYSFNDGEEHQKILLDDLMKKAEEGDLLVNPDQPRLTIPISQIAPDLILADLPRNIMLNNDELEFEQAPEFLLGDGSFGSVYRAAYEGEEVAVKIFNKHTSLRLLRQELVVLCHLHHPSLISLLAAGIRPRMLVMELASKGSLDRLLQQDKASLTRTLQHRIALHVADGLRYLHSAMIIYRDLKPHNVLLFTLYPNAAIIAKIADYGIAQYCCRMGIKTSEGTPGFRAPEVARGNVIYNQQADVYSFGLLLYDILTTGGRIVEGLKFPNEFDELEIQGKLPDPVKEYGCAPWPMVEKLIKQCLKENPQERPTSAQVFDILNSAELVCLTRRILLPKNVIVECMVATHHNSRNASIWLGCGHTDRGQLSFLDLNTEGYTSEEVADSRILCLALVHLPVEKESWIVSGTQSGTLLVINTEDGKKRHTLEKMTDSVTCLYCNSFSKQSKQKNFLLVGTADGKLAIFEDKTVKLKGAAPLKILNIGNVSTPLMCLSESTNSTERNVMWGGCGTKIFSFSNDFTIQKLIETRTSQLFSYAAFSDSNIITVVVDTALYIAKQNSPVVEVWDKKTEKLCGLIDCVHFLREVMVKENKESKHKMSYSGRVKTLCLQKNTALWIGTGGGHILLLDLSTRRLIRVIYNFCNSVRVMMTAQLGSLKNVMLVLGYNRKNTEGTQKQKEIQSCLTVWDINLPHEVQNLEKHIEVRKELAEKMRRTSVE
Protocol: as §1, §2, §3, §4, §5

[3] = biological target: T1, LRRK2 WT; test: LRRK2 wild-type ADP-Glo kinase assay; assay type: biochemical; settings: read-out: LRRK2 WT ADPGlo IC50
Protocol: LRRK2 kinase activity was measured using an ADP-Glo kinase assay from Promega Corporation. The assay is a homogeneous luminescence-based assay that measures ADP formed from a kinase reaction. The ADP is converted into ATP, which is used to generate light in a luciferase reaction. The luminescence generated correlates with kinase activity.
The LRRK2 kinase was obtained from Invitrogen (Life Technologies Corporation) and comprises residue 970 to 2527 of the full length human wild-type LRRK2 kinase. The kinase reactions were performed in a 10 μL volume in 384-well plates. The kinase reaction buffer consisted of 50 mM Tris pH 8.5, 0.01% BRIJ-35, 10 mM MgCl2, 1 mM EGTA, and 2 mM DTT.
The reaction mixture (10 μl total volume) was incubated for 3 hours at room temperature (RT, ca. 25° C.), before the reaction was terminated by addition of 10 μl ADP-Glo reagent. The mixture was further incubated for 60 minutes at RT before addition of 20 μl Kinase detection reagent from the ADP-Glo assay kit. Luminescence signal was measure on a BMG Labtech Pherastar FSX multimode microplate reader. The signal integration time was 0.5 s.
Test compound potency (Ki,app) was estimated by nonlinear regression using the tight-binding fit model in GeneData Screener (GeneData AG). In cases where the Ki,app could not be determined, the % inhibition at the highest tested concentration is reported. The tight-binding fit model is given by euquation (2). […] Ki,app is the apparent dissociation constant of the inhibitor. The IC50 can be calculated as given by equation (3). Equation (3): IC50=Ki,app+[E]/2 (3) IC50 estimates were obtained from independent experiment and the logarithmic average was calculated.

[4] = Rat brain disposition after oral gavage; assay type: in vivo, male Sprague-Dawley rats; settings: male, Sprague-Dawley, oral 10 mg/kg, 0.5 h, mean ± stdev
Protocol: Brain disposition was evaluated in male Sprague-Dawley rats (n=3, standard body weight). Briefly, test compound was formulated as a simple suspension (0.5% HPMC in water) then administered by oral gavage (10 mg/kg, 10 mL/kg or 5 mg/kg, 10 mL/kg). At the designated time point (0.5 or 1 h post dose) rats were sacrificed and terminal blood and brain samples taken. Isolated plasma and brain homogenates were extracted by standard protein precipitation in acetonitrile, containing internal standard. Diluted extracts were analyzed by liquid-chromatography coupled with tandem mass spectrometry detection (LC-MS/MS) using a bioanalytical method. Concentrations of test compound in plasma and brain were quantified against matrix matched calibration standards. The total plasma and brain concentration time data are presented in Table 4 alongside the calculated brain Kp (total brain concentration:total plasma concentration ratio).
The total brain-to-plasma partition coefficient (brain Kp) is given by the ratio of the total brain concentration and total plasma concentration of the compound according to the equation below: […]
Based on the measured rat fuplasma and fubrain values and the brain Kp the unbound brain-to-plasma partition coefficient (brain Kp,uu for each compound was calculated. The Kp,uu parameter describes the extent of brain penetration for each compound, i.e. the parameter gives a direct quantitative description of how the blood-brain barrier (BBB) handles the compounds regarding passive transport and active influx/efflux. The brain Kp,uu is given by the equation below: […]

[5] = Fraction unbound in rat plasma and brain homogenate by equilibrium dialysis; assay type: in vitro ADME, male Sprague-Dawley rat; settings: 1 μM, equilibrium dialysis 5 h at 37° C.
Protocol: The fraction of unbound compound in male Sprague-Dawley rat plasma (fuplasma) and brain homogenate (fubrain) were determined by equilibrium dialysis using 96-well HTD-dialysis plates with dialysis membranes (molecular weight cut off 12-14 KDa). One side of the HTD-dialysis plate was loaded with matrix (plasma or brain homogenate) and the other side with buffer (100 mM sodium phosphate buffer, pH 7.4). Test compounds were dissolved in DMSO then spiked (5 μL of 0.2 mM) into blank (995 μL) plasma or diluted brain homogenate (1:4 ratio in phosphate buffer) giving a final nominal concentration 1 μM (≤0.5% DMSO). The matrices were loaded into respective chambers and equilibrated against phosphate buffer for 5 h at 37° C. (in a humidified air incubator with 5% CO2 with shaking). Samples from both chambers (buffer and plasma or brain homogenate) were aliquoted to fresh 96-well polypropylene plates then matrix matched using an equal volume of opposite blank matrix before extraction with cold solvent (3 volumes acetonitrile) containing an appropriate bioanalytical internal standard. After centrifugation (20 min, 3200 g, 4° C.) the supernatants were diluted with appropriate volumes of water and compound concentrations were quantified by LC/MS-MS against matrix matched calibration standards. The fuplasma and fubrain were calculated according to equation 4 below.
[formula] Where [F] is the compound concentration on the buffer (receiver) side of the membrane; [T] is the compound concentration on the plasma or brain (donor) side of the membrane; D is the matrix dilution factor which is determined as D=4 for brain matrix and D=1 for plasma matrix in these assays.

[6] = Hepatic microsomal intrinsic clearance assay; assay type: in vitro ADME; settings: pooled liver microsomes, pH 7.4; liver microsomes 0.5 mg/mL; 1 μM; NADPH; 1 hour at 37° C.; LLOQ 0.36 L/h/kg
Protocol: Compounds (final concentration 1 μM, 1% organic) of the invention were incubated for 1 hour at 37° C., with shaking, in phosphate buffer (pH 7.4) containing commercially sourced pooled liver microsomes (final concentration 0.5 mg/mL). […] At designated time points (0, 5, 10, 20, 30 and 60 minutes) ice-cold acetonitrile containing internal standard (300 μL) was added to an incubation well to stop the reaction then mixed and centrifuged (3220 g for 20 minutes at 4° C.). Supernatant was diluted (1:4) with deionized water then analyzed by LC-MS/MS.

[7] = 0.5 nM kinase, 1.0 mM ATP, IC50=Ki,app+[E]/2, n≥2 tests

LRRK2 G2019S, sequence (Q5S007 970-2527 G2019S): as the sequence (Q5S007 970-2527) above, with G1050S counted along it

Structure (SMILES)	IC50 [1] [nM]	IC50 [2] [nM]	IC50 [3, 7] [nM]	CLint scaled at 1 μM [6] [mL/min/kg]	other results
CCOc1ncccc1-n1nc2c(c1C)Nc1ncc3c(Cl)nn(c3n1)CCCO2 [Example 2, 8-Chloro-2-(2-ethoxypyridin-3-yl)-3-methyl-2,4,12,13-tetrahydro-11H-5,7-(azenometheno)dipyrazolo[3,4-b:5′,1′-g][1]oxa[4,6,8]triazacycloundecine]	0.35	0.98	0.28	20.8	Kp at 0.5 h ([4]; brain, n=3): 1.2 ± 0.7; Kp uu at 0.5 h ([4]; brain, n=3): 0.35 ± 0.18; concentration at 0.5 h ([4]; brain, n=3, read-out: Total brain concentration): 31 ± 11 ng/g; concentration at 0.5 h ([4]; plasma, n=3, read-out: Total plasma concentration): 32 ± 18 ng/mL; fubrain (% free) ([5]; rat brain homogenate): 2.7 % free; fuplasma (% free) ([5]; rat plasma): 9.7 % free
CCc1ncccc1-n1nc2c(c1C)Nc1ncc3c(Cl)nn(c3n1)CCCO2 [Example 4, 8-Chloro-2-(2-ethylpyridin-3-yl)-3-methyl-2,4,12,13-tetrahydro-11H-5,7-(azenometheno)dipyrazolo[3,4-b:5′,1′-g][1]oxa[4,6,8]triazacycloundecine]	1.8	7	0.82	23.8	
Cc1c2c(nn1-c1cccnc1C(F)(F)F)OCCCn1nc(Cl)c3cnc(nc31)N2 [Example 17, 8-Chloro-3-methyl-2-(2-(trifluoromethyl)pyridin-3-yl)-2,4,12,13-tetrahydro-11H-5,7-(azenometheno)dipyrazolo[3,4-b:5′,1′-g][1]oxa[4,6,8]triazacycloundecine]	5.5	20	3.1	15.3	
Cc1c2c(nn1-c1cccnc1OC(F)(F)F)OCCCn1nc(Cl)c3cnc(nc31)N2 [Example 20, 8-Chloro-3-methyl-2-(2-(trifluoromethoxy)pyridin-3-yl)-2,4,12,13-tetrahydro-11H-5,7-(azenometheno)dipyrazolo[3,4-b:5′,1′-g][1]oxa[4,6,8]triazacycloundecine]	1.1	3.4	0.48	18.3	
COc1nnccc1-n1nc2c(c1C)Nc1ncc3c(Cl)nn(c3n1)CCCO2 [Example 21, 8-Chloro-2-(3-methoxypyridazin-4-yl)-3-methyl-2,4,12,13-tetrahydro-11H-5,7-(azenometheno)dipyrazolo[3,4-b:5′,1′-g][1]oxa[4,6,8]triazacycloundecine]	0.24	0.94	0.45	25.7	
[2H]C([2H])([2H])c1c2c(nn1-c1cccnc1C)OCCCn1nc(Cl)c3cnc(nc31)N2 [Example 26, 8-Chloro-3-(methyl-d3)-2-(2-methylpyridin-3-yl)-2,4,12,13-tetrahydro-11H-5,7-(azenometheno)dipyrazolo[3,4-b:5′,1′-g][1]oxa[4,6,8]triazacycloundecine]				11.7	
[2H]C([2H])([2H])c1c2c(nn1-c1cc(C)cnc1C)OCCCn1nc(Cl)c3cnc(nc31)N2 [Example 27, 8-Chloro-2-(2,5-dimethylpyridin-3-yl)-3-(methyl-d3)-2,4,12,13-tetrahydro-11H-5,7-(azenometheno)dipyrazolo[3,4-b:5′,1′-g][1]oxa[4,6,8]triazacycloundecine]				8.17	
[2H]C([2H])([2H])c1c2c(nn1-c1cccnc1OC)OCCCn1nc(Cl)c3cnc(nc31)N2 [Example 28, 8-Chloro-2-(2-methoxypyridin-3-yl)-3-(methyl-d3)-2,4,12,13-tetrahydro-11H-5,7-(azenometheno)dipyrazolo[3,4-b:5′,1′-g][1]oxa[4,6,8]triazacycloundecine]	0.23	0.76		10.2	IC50 [3]: 0.63 nM
[2H]C([2H])([2H])c1c2c(nn1-c1cc(F)cnc1C)OCCCn1nc(Cl)c3cnc(nc31)N2 [Example 30, 8-Chloro-2-(5-fluoro-2-methylpyridin-3-yl)-3-(methyl-d3)-2,4,12,13-tetrahydro-11H-5,7-(azenometheno)dipyrazolo[3,4-b:5′,1′-g][1]oxa[4,6,8]triazacycloundecine]				14	
